In patent US20200017495A1, “NOVEL HETEROCYCLIC COMPOUNDS AND THEIR USE IN PREVENTING OR TREATING BACTERIAL INFECTIONS” (priority 2017, published 2020):

Columns and labels:
Format in all cases: cell-based
[1] = tested on: Salmonella typhimurium (STY) isolates; experiment: MIC of compounds alone and combined with antibacterials, broth microdilution (CLSI); conditions: for MIC ATB in combination: STY S3371
Procedure: (§1) Method 2: MIC of Compounds Alone and Combined with Antibacterials Against Bacterial Isolates
(§2) Compounds of the present invention were assessed against genotyped bacterial strains (Table 3, 4) alone or in combination with an antibacterial (Table 2). […]. Briefly, compounds alone according to the invention were prepared in DMSO and spotted (2 μL each) on sterile polystyrene plates (Corning, 3788). Combinations of compounds and antibiotics dilutions were prepared in DMSO and spotted (1 μL each) on sterile polystyrene plates (Corning, 3788). Log phase bacterial suspensions were adjusted to a final density of 5.10^5 CFU/mL in cation-adjusted Mueller-Hinton broth (ca-MHB; Becton-Dickinson and Company) and added to each well (98 μL). Microplates were incubated for 16-20 h at 35° C. in ambient air. The MIC of the compounds was defined as the lowest concentration of said compounds that prevented bacterial growth as read by visual inspection. The MIC of ATB at each compound concentration was defined as the lowest concentration of ATB that prevented bacterial growth as read by visual inspection.

[2] = tested on: Providencia stuartii (PST) isolates; experiment: as above
Procedure: as §1, §2

[3] = tested on: Providencia rettgeri (PRE) isolates; experiment: as above
Outline: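 Broth microdilution in cation-adjusted Mueller-Hinton broth, inoculum 5.10^5 CFU/mL, 16-20 h at 35° C in ambient air, on genotyped isolates. Compound MIC, alone or with an antibacterial, taken visually as lowest concentration preventing growth; antibacterial MIC determined at each compound concentration.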

[4] = tested on: Proteus mirabilis (PMI) isolates; experiment: microbe, parasite or virus in culture
Procedure: as §1
Compounds of the present invention were assessed against genotyped bacterial strains (Table 3, 4) alone or in combination with an antibacterial (Table 2). […] Log phase bacterial suspensions were adjusted to a final density of 5.10^5 CFU/mL in cation-adjusted Mueller-Hinton broth (ca-MHB; Becton-Dickinson and Company) and added to each well (98 μL). Microplates were incubated for 16-20 h at 35° C. in ambient air. The MIC of the compounds was defined as the lowest concentration of said compounds that prevented bacterial growth as read by visual inspection. The MIC of ATB at each compound concentration was defined as the lowest concentration of ATB that prevented bacterial growth as read by visual inspection.

## CC(C)(O/N=C(\C(=O)N[C@@H]1C(=O)N2C(C(=O)[O-])=C(C[n+]3ccccc3)CS[C@H]12)c1csc(N)n1)C(=O)O [CAZ, Ceftazidime]
[1]; AF2 @ 8 μg/mL
  MIC ATB in combination: <0.25 µg/mL
[1]; AF3 @ 8 μg/mL
  MIC ATB in combination: <0.25 µg/mL
[1]; strain STY S3371, genotype OXA-1
  MIC: 0.5 µg/mL
[2]; PST UFR94, AF2 @ 8 μg/mL
  MIC ATB in combination: <=0.25 μg/mL
[2]; PST UFR94, AF3 @ 8 μg/mL
  MIC ATB in combination: <=0.25 μg/mL
[2]; PST UFR95, AF2 @ 8 μg/mL
  MIC ATB in combination: <=0.25 μg/mL
[2]; PST UFR95, AF3 @ 8 μg/mL
  MIC ATB in combination: <=0.25 μg/mL
[2]; PST UFR120, AF2 @ 8 μg/mL
  MIC ATB in combination: <0.25 µg/mL
[2]; PST UFR120, AF3 @ 8 μg/mL
  MIC ATB in combination: <0.25 µg/mL
[2]; PST UFR121, AF2 @ 8 μg/mL
  MIC ATB in combination: <0.25 µg/mL
[2]; PST UFR121, AF3 @ 8 μg/mL
  MIC ATB in combination: <0.25 µg/mL
[2]; PST UFR122, AF2 @ 8 μg/mL
  MIC ATB in combination: <0.25 µg/mL
[2]; PST UFR122, AF3 @ 8 μg/mL
  MIC ATB in combination: <0.25 µg/mL
[2]; PST UFR123, AF2 @ 8 μg/mL
  MIC ATB in combination: <=0.25 μg/mL
[2]; PST UFR123, AF3 @ 8 μg/mL
  MIC ATB in combination: <0.25 µg/mL
[2]; PST UFR124, AF2 @ 8 μg/mL
  MIC ATB in combination: <=0.25 μg/mL
[2]; PST UFR124, AF3 @ 8 μg/mL
  MIC ATB in combination: <0.25 µg/mL
[2]; PST UFR125, AF2 @ 8 μg/mL
  MIC ATB in combination: <=0.25 μg/mL
[2]; PST UFR125, AF3 @ 8 μg/mL
  MIC ATB in combination: <0.25 µg/mL
[2]; PST UFR235, AF2 @ 8 μg/mL
  MIC ATB in combination: <=0.25 μg/mL
[2]; PST UFR235, AF3 @ 8 μg/mL
  MIC ATB in combination: <=0.25 μg/mL
[2]; strain PST UFR94, genotype CTX-M-14
  MIC: 1 µg/mL
[2]; strain PST UFR95, genotype TEM-24
  MIC: 64 µg/mL
[2]; strain PST UFR98, genotype TEM-1, CMY-6, OXA-1, NDM-1, RmtC
  MIC: >256 µg/mL
[2]; strain PST UFR98, with AF2 @ 8 μg/mL
  MIC ATB in combination: >128 µg/mL
[2]; strain PST UFR98, with AF3 @ 8 μg/mL
  MIC ATB in combination: <0.25 µg/mL
[2]; strain PST UFR235, genotype VEB-1
  MIC: >128 µg/mL
[3]; PRE UFR99, AF2 @ 8 μg/mL
  MIC ATB in combination: >128 µg/mL
[3]; PRE UFR99, AF3 @ 8 μg/mL
  MIC ATB in combination: >128 µg/mL
[3]; strain PRE UFR96, with AF2 @ 8 μg/mL
  MIC ATB in combination: <0.25 µg/mL
[3]; strain PRE UFR96, with AF3 @ 8 μg/mL
  MIC ATB in combination: <0.25 µg/mL
[3]; strain PRE UFR97, with AF2 @ 8 μg/mL
  MIC ATB in combination: >128 µg/mL
[3]; strain PRE UFR97, with AF3 @ 8 μg/mL
  MIC ATB in combination: >128 µg/mL
[3]; strain PRE UFR236, genotype TEM-1, OXA-48
  MIC: 32 µg/mL
[3]; strain PRE UFR236, with AF2 @ 8 μg/mL
  MIC ATB in combination: 0.5 µg/mL
[3]; strain PRE UFR236, with AF3 @ 8 μg/mL
  MIC ATB in combination: <=0.25 μg/mL
[4]; PMI UFR82, AF2 @ 8 μg/mL
  MIC ATB in combination: <0.25 µg/mL
[4]; PMI UFR82, AF3 @ 8 μg/mL
  MIC ATB in combination: <0.25 µg/mL
[4]; PMI UFR126, AF2 @ 8 μg/mL
  MIC ATB in combination: <0.25 µg/mL
[4]; PMI UFR126, AF3 @ 8 μg/mL
  MIC ATB in combination: <0.25 µg/mL
[4]; PMI UFR127, AF2 @ 8 μg/mL
  MIC ATB in combination: <0.25 µg/mL
[4]; PMI UFR127, AF3 @ 8 μg/mL
  MIC ATB in combination: <0.25 µg/mL
[4]; PMI UFR128, AF2 @ 8 μg/mL
  MIC ATB in combination: <0.25 µg/mL
[4]; PMI UFR128, AF3 @ 8 μg/mL
  MIC ATB in combination: <0.25 µg/mL
[4]; PMI UFR129, AF2 @ 8 μg/mL
  MIC ATB in combination: <0.25 µg/mL
[4]; PMI UFR129, AF3 @ 8 μg/mL
  MIC ATB in combination: <0.25 µg/mL
[4]; PMI UFR130, AF2 @ 8 μg/mL
  MIC ATB in combination: <0.25 µg/mL
[4]; PMI UFR130, AF3 @ 8 μg/mL
  MIC ATB in combination: <0.25 µg/mL
[4]; PMI UFR133, AF2 @ 8 μg/mL
  MIC ATB in combination: <0.25 µg/mL
[4]; PMI UFR133, AF3 @ 8 μg/mL
  MIC ATB in combination: <0.25 µg/mL
[4]; PMI UFR237, AF2 @ 8 μg/mL
  MIC ATB in combination: <0.25 µg/mL
[4]; PMI UFR237, AF3 @ 8 μg/mL
  MIC ATB in combination: <0.25 µg/mL
[4]; strain PMI UFR82, genotype CMY-2
  MIC: 4 µg/mL
[4]; strain PMI UFR120, genotype TEM-1, SHV-11, CTX-M-14
  MIC: <=0.25 μg/mL
[4]; strain PMI UFR121, genotype TEM-1, TEM-52
  MIC: 16 µg/mL
[4]; strain PMI UFR122, genotype TEM-1, CTX-M-15
  MIC: 1 µg/mL
[4]; strain PMI UFR123, genotype CTX-M-1
  MIC: 2 µg/mL
[4]; strain PMI UFR124, genotype CTX-M-2
  MIC: 2 µg/mL
[4]; strain PMI UFR125, genotype CTX-M-71
  MIC: 2 µg/mL
[4]; strain PMI UFR126, genotype TEM-2, PER-1
  MIC: >128 µg/mL
[4]; strain PMI UFR127, genotype VEB-1
  MIC: >128 µg/mL
[4]; strain PMI UFR128, genotype VEB-1, OXA-10
  MIC: >128 µg/mL
[4]; strain PMI UFR129, genotype TEM-1, VEB-6
  MIC: >128 µg/mL
[4]; strain PMI UFR130, genotype CMY-2
  MIC: 4 µg/mL
[4]; strain PMI UFR131, genotype CMY-16, OXA-1, OXA-10, NDM-1, ArmA
  MIC: >128 µg/mL
[4]; strain PMI UFR131, with AF2 @ 8 μg/mL
  MIC ATB in combination: <0.25 µg/mL
[4]; strain PMI UFR131, with AF3 @ 8 μg/mL
  MIC ATB in combination: <0.25 µg/mL
[4]; strain PMI UFR132, genotype VEB-6, DHA-1, NDM-1, AphA6, AacA4
  MIC: >128 µg/mL
[4]; strain PMI UFR132, with AF2 @ 8 μg/mL
  MIC ATB in combination: <0.25 µg/mL
[4]; strain PMI UFR132, with AF3 @ 8 μg/mL
  MIC ATB in combination: <0.25 µg/mL
[4]; strain PMI UFR133, genotype OXA-23
  MIC: <=0.25 μg/mL
[4]; strain PMI UFR237, genotype VEB-6
  MIC: >128 µg/mL
